{
  "source": "patent US20060257411A1",
  "about": "(priority 2005, published 2006)",
  "molecules": {"B1": {"name": "type I interferon: recombinant murine IFN-β from R&D systems used to pretreat macrophages (protein, UniProt P01575 22-182, looked up)", "Interferon beta": "INYKQLQLQERTNIRKCQELLEQLNGKINLTYRADFKIPMEMTEKMQKSYTAFAIQEMLQNVFLVFRNNFSSTGWNETIVVRLLDELHQQTVFLKTVLEEKQEERLTWEMSSTALHLKSYYWRVQRYLKLMKYNSYAWMVVRAEIFRNFLIIRRLTRNFQN"}},
  "key": {"peritoneal macrophages": {"system": "peritoneal macrophages", "assay_type": "cell-based, mouse"}, "[1]": {"system": "MyD88-independent pathway (TRIF-TRAM, IRF-3) in peritoneal macrophages", "assay_type": "cell-based, mouse"}, "[2]": {"system": "vesicular stomatitis virus (VSV)", "assay_type": "cell-based", "conditions": "Heedless or Tlr4 Lps-d/Lps-d macrophages treated with interferon before infection (4 h)"}, "[3]": {"conditions": "macrophages from homozygous Heedless mice compared with wild-type, 4 h incubation"}},
  "note": "Where two headings read alike, the source gives them in different places.",
  "data": [
    {"molecule": "MALP-2", "values": [
      {"measurement": "TNF production in response to inducer", "setting": "peritoneal macrophages", "value": "partial impairment"}
    ]},
    {"molecule": "Pam2CSK4", "values": [
      {"measurement": "TNF production in response to inducer", "setting": "peritoneal macrophages; [3]", "value": "partial impairment"}
    ]},
    {"molecule": "Pam3CSK4", "values": [
      {"measurement": "TNF production in response to inducer", "setting": "peritoneal macrophages; [3]", "value": "normal"}
    ]},
    {"molecule": "lipid A", "values": [
      {"measurement": "TNF production in response to lipid A", "setting": "peritoneal macrophages", "value": "perfectly able to produce TNF"},
      {"measurement": "formation of the IRF-3 phosphodimer", "setting": "[1]", "value": "not detected"},
      {"measurement": "signaling via the MyD88-independent pathway (type I IFN production)", "setting": "[1]", "value": "prevented"}
    ]},
    {"molecule": "lipoteichoic acid", "values": [
      {"measurement": "TNF production in response to inducer", "setting": "peritoneal macrophages", "value": "partial impairment"}
    ]},
    {"molecule": "poly IC", "values": [
      {"measurement": "TNF production in response to inducer", "setting": "peritoneal macrophages; [3]", "value": "normal"}
    ]},
    {"molecule": "B1", "values": [
      {"measurement": "lytic effect of VSV on macrophages", "setting": "[2]", "value": "prevented"}
    ]}
  ]
}
